Results reported in patent US20230112845A1, “COMPOSITIONS OF BERBERINE URSODE[…] METHODS THEREOF FOR TREATING FATTY LIVER DISEASE, DIABETES AND HYPERLIPIDEMIA” (SHENZHEN HIGHTIDE BIOPHARMACEUTICAL LTD., priority 2020, published 2023).

Test system: subjects with a history of hypercholesterolemia
Assay: Phase 1b randomized placebo-controlled dose-ranging study: serum lipids, lipoproteins, HbA1c, ALT
Assay type: in vivo, human
Set-up: TG (serum level) / TC (serum level) / Non-HDL-c (serum level) / HDL-c (serum level): unit not given here; LDL-c (serum level): unit: mmol/L
Procedure: A double-blind, randomized, placebo-controlled, dose ranging study was carried out that compared three doses of berberine ursodeoxycholate (BUDCA, a.k.a. HTD1801) to placebo in a cohort of subjects with a history of hypercholesterolemia and serum LDL-c levels above 2.59 mmol/L (>99.9 mg/dL). BUDCA was administered in two divided doses each day for 28 days. The primary endpoints of the study were safety and tolerability of this new compound, as well as its effect in lowering serum lipid and lipoprotein concentrations.
Adult subjects were recruited and enrolled into this double-blind, randomized placebo-controlled dose ranging study at one of three research units in Australia between April and December of 2018. The key entry criteria were hypercholesterolemia, with serum LDL-c >2.59 mmol/L (>99.9 mg/dL) and overweight or obesity (BMI between 25 and 40 kg/m^2). […] Subjects were asked to discontinue the use of lipid-lowering medications at least 28 days prior to their first dose of BUDCA and for the duration of the study.
Subjects underwent an initial assessment and were then randomized to receive ascending doses of BUDCA in three sequential dosing groups: Group I received 500 mg/day of BUDCA or matching placebo in a ratio of 3:1. Group II received 1,000 mg/day of BUDCA or placebo, 3:1 and Group III received 2,000 mg/day BUDCA or placebo, 3:1. Study medication or placebo was given in two equal doses daily for 28 days. The investigational product BUDCA was administered in the form of film-coated tablets, each tablet containing 250 mg of BUDCA. The placebo was identical in appearance to the active agent. Subjects were instructed to take their tablets after breakfast and after dinner respectively with a glass of water.
The groups were enrolled sequentially, but follow-up overlapped (the next cohort could begin during the follow-up period of the prior cohort) (FIG. 1). The decision to move to the next dose level was based upon tolerability and safety findings, as assessed by a Safety Monitoring Committee. Individual subjects were admitted overnight for their first and last doses and so as to draw blood samples for pharmacokinetic studies; in between, they were seen every few days. Subjects were asked to arrive in a fasting state (typically overnight). After having vital signs measured and baseline laboratory tests taken, the subject was given a morning meal and then observed while taking their first dose of BUDCA with a glass of water. They stayed overnight to allow sampling for PK studies which were drawn at the following time points −18 hours, −12, −6, 0 time (pre-dose), +0.25 (post-dose), +0.5, +1, +2, +3, +4, +8, +12, +24 hours. Blood samples for PK studies were collected in dipotassium ethylene diamine tetra-acetic acid (K2EDTA) as the anticoagulant and the assays were done on plasma.
Blood samples for serum biochemistry (including lipid levels) and blood counts were drawn with subjects in a fasting state, at baseline and every 14 days through the study. Samples were shipped in a refrigerated state to laboratory where testing was done using routine clinical methodology, as follows: HbA1c was measured by ion-exchange HPLC (Bio-Rad D-100). For samples received by the laboratory prior to Sep. 2, 2018, the following analytes were measured on the Roche Diagnostics Modular P100 platform (ALT by photometric assay, TC by Trinder peroxidase assay, LDL-c by photometric assay, HDL-c by homogenous enzymatic colorimetric assay and TG by photometric assay). For samples received by the laboratory after Sep. 2, 2018, the following analytes were measured on the Beckman Coulter AU 5800 platform (ALT by photometric assay, TC by cholesterol-oxidase/peroxidase assay, LDL-c by homogenous enzymatic colorimetric assay, HDL-c by immune inhibition and cholesterol oxidase assay and TG by an enzymatic method using opiase/GK/GPO-PAP-4 amino phenazone). […]

[1] = highest dose (2,000 mg per day), day 28

## COc1ccc2cc3[n+](cc2c1OC)CCc1cc2c(cc1-3)OCO2.C[C@H](CCC(=O)[O-])[C@H]1CC[C@H]2[C@@H]3[C@@H](O)C[C@@H]4C[C@H](O)CC[C@]4(C)[C@H]3CC[C@]12C [BUDCA, berberine ursodeoxycholate]
500 mg/day, Day 14, baseline 1.25, P vs. placebo n.s.
  HDL-c (serum level): 1.22
500 mg/day, Day 14, baseline 2.11, P vs. placebo n.s.
  TG (serum level): 1.89
500 mg/day, Day 14, baseline 4.01, P vs. placebo n.s.
  LDL-c (serum level): 3.87
500 mg/day, Day 14, baseline 4.85, P vs. placebo n.s.
  Non-HDL-c (serum level): 4.75
500 mg/day, Day 14, baseline 6.13, P vs. placebo n.s.
  TC (serum level): 5.96
500 mg/day, Day 28, baseline 1.25, P vs. placebo n.s.
  HDL-c (serum level): 1.17
500 mg/day, Day 28, baseline 2.11, P vs. placebo n.s.
  TG (serum level): 2.27
500 mg/day, Day 28, baseline 4.01, P vs. placebo n.s.
  LDL-c (serum level): 3.72
500 mg/day, Day 28, baseline 4.85, P vs. placebo 0.03
  Non-HDL-c (serum level): 4.71
500 mg/day, Day 28, baseline 6.13, P vs. placebo n.s.
  TC (serum level): 5.88
1,000 mg/day, Day 14, baseline 1.32, P vs. placebo n.s.
  HDL-c (serum level): 1.29
1,000 mg/day, Day 14, baseline 1.76, P vs. placebo n.s.
  TG (serum level): 1.73
1,000 mg/day, Day 14, baseline 3.68, P vs. placebo n.s.
  LDL-c (serum level): 3.42
1,000 mg/day, Day 14, baseline 4.48, P vs. placebo n.s.
  Non-HDL-c (serum level): 4.23
1,000 mg/day, Day 14, baseline 5.81, P vs. placebo n.s.
  TC (serum level): 5.51
1,000 mg/day, Day 28, baseline 1.32, P vs. placebo n.s.
  HDL-c (serum level): 1.23
1,000 mg/day, Day 28, baseline 1.76, P vs. placebo 0.028
  TG (serum level): 1.86
1,000 mg/day, Day 28, baseline 3.68, P vs. placebo n.s.
  LDL-c (serum level): 3.51
1,000 mg/day, Day 28, baseline 4.48, P vs. placebo 0.025
  Non-HDL-c (serum level): 4.31
1,000 mg/day, Day 28, baseline 5.81, P vs. placebo n.s.
  TC (serum level): 5.54
2,000 mg/day, Day 14, baseline 1.24, P vs. placebo n.s.
  HDL-c (serum level): 1.33
2,000 mg/day, Day 14, baseline 1.60, P vs. placebo n.s.
  TG (serum level): 1.42
2,000 mg/day, Day 14, baseline 3.85, P vs. placebo 0.0093
  LDL-c (serum level): 3.40
2,000 mg/day, Day 14, baseline 4.62, P vs. placebo 0.0018
  Non-HDL-c (serum level): 4.04
2,000 mg/day, Day 14, baseline 5.91, P vs. placebo 0.01
  TC (serum level): 5.37
2,000 mg/day, Day 28, baseline 1.24, P vs. placebo n.s.
  HDL-c (serum level): 1.29
2,000 mg/day, Day 28, baseline 1.60, P vs. placebo 0.0018
  TG (serum level): 1.54
2,000 mg/day, Day 28, baseline 3.85, P vs. placebo 0.091
  LDL-c (serum level): 3.44
2,000 mg/day, Day 28, baseline 4.62, P vs. placebo 0.0002
  Non-HDL-c (serum level): 4.14
2,000 mg/day, Day 28, baseline 5.91, P vs. placebo 0.003
  TC (serum level): 5.42
500-2,000 mg/day, 28 days
  ALT level during therapy: did not change significantly
  HbA1C level during therapy: did not change significantly
500-2,000 mg/day, maximum reductions relative to placebo after 14 days
  serum lipid levels among subjects receiving active therapy: decreased in a dose-dependent fashion
[1]
  change in HDL-c concentration: no significant changes
  change in TG concentration: no significant changes
Highest dose (2,000 mg per day), day 28, P=0.0004
  reduction in the serum concentration of TC: 8.2%
Highest dose (2,000 mg per day), day 28, P=0.0006
  reduction in the serum concentration of LDL-c: 10.4%
